Laboratory results from patent US8399681B2, “Substituted aminothiazolone indazoles as estrogen related receptor-alpha modulators” (Janssen Pharmaceutica NV, priority 2009, dated 2013).
pEC50: −log10 of the molar value.

Target: T1, ERR1 (also known as ERR-α or ERR-1) (Homo sapiens, UniProt P11474)
T1 sequence (P11474 193-421 limits assumed): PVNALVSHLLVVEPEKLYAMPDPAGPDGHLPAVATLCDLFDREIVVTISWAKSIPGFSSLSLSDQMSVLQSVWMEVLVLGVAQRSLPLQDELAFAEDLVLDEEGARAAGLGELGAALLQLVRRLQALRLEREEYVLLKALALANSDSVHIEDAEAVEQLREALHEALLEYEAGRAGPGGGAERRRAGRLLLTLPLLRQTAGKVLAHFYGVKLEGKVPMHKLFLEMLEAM
Test: TR-FRET assay (disruption of co-activator peptide binding)
Type: biochemical
Conditions: 6His-tagged ERR1 LBD, GST-hSRC2 co-activator polypeptide; average of 3 independent experiments
Description: Time-Resolved Fluorescence Resonance Energy Transfer (TR-FRET) experiments were performed to examine the functional response of ERR1 (also known as ERR-α or ERR-1) ligands. The TR-FRET assay described herein relied on the conformation of ERR1 for binding to a co-activator peptide: when a test compound binds to ERR1 and alters its conformation, it can disrupt the binding of the co-activator peptide. The components of this homogeneous secondary assay included: the ^6His-tagged-ERR1LBD, a GST-labeled-hSRC2 co-activator polypeptide and a fluorescent donor/acceptor pair from CIS bio international htrf/bioassays (Bedford, Mass.) using both an α-GST Europium Cryptate (Eu) label and an α^6His-XL665 (allophycocyanin) fluorophore.
For TR-FRET measurements, the reaction was buffered in 25 mM Tris pH 8, 2.5 mM Hepes, 20 mM KCl, 1 mM DTT, and 0.05 mg/mL BSA (-lipids). The final concentrations of reagents were 6 nM of ERR1LBD, 6 nM GST-SRC-2 peptide, 30 nM Eu cryptate, and 7.5 nM XL665. Reactions were allowed to reach equilibrium at 25° C. for 4-18 hours before collecting data on the Analyst from LJL Biosystems (Molecular Devices Sunnyvale, Calif.). As a time-resolved method, the samples were excited at […] and emission was collected for 1 ms at both 615 and 665 nm with delays of 400 and 75 μs, respectively. Dose response curves were fitted using a hyperbolic equation and the data reported is the average of 3 independent experiments.

Row | pEC50 | Structure (SMILES)
1 | 7.17 | CN1CCN(C2=NC(=O)/C(=C/c3ccc4c(cnn4Cc4ccc(Cl)cc4Cl)c3)S2)CC1 [Example 25, 5-[1-(2,4-Dichloro-benzyl)-1H-indazol-5-ylmethylene]-2-(4-methyl-piperazin-1-yl)-thiazol-4-one]
2 | 8.32 | CN1CCN(C2=NC(=O)/C(=C/c3ccc4c(cnn4Cc4ccc(Br)cc4C(F)(F)F)c3)S2)CC1 [Example 26, 5-[1-(4-Bromo-2-trifluoromethyl-benzyl)-1H-indazol-5-ylmethylene]-2-(4-methyl-piperazin-1-yl)-thiazol-4-one]
3 | 7.96 | CN1CCN(C2=NC(=O)/C(=C/c3ccc4c(cnn4Cc4ccc(C5CC5)cc4C(F)(F)F)c3)S2)CC1 [Example 27, 5-[1-(4-Cyclopropyl-2-trifluoromethyl-benzyl)-1H-indazol-5-ylmethylene]-2-(4-methyl-piperazin-1-yl)-thiazol-4-one]
4 | 7.23 | CN1CCN(C2=NC(=O)/C(=C/c3ccc4c(cnn4Cc4ccc(C(F)(F)F)cc4Br)c3)S2)CC1 [Example 28, 5-[1-(2-Bromo-4-trifluoromethyl-benzyl)-1H-indazol-5-ylmethylene]-2-(4-methyl-piperazin-1-yl)-thiazol-4-one]
5 | 7.42 | CN1CCN(C2=NC(=O)/C(=C/c3ccc4c(cnn4Cc4ccc(C(F)(F)F)cc4C4CC4)c3)S2)CC1 [Example 29, 5-[1-(2-Cyclopropyl-4-trifluoromethyl-benzyl)-1H-indazol-5-ylmethylene]-2-(4-methyl-piperazin-1-yl)-thiazol-4-one]
6 | 7.64 | C=C(C)c1ccc(Cn2ncc3cc(/C=C4\SC(N5CCN(C)CC5)=NC4=O)ccc32)c(C(F)(F)F)c1 [Example 30, 5-[1-(4-Isopropenyl-2-trifluoromethyl-benzyl)-1H-indazol-5-ylmethylene]-2-(4-methyl-piperazin-1-yl)-thiazol-4-one]
7 | 8.34 | O=C1N=C(N2CCN(CCO)CC2)S/C1=C\c1ccc2c(cnn2Cc2ccc(C3CC3)cc2C(F)(F)F)c1 [Example 31, 5-[1-(4-Cyclopropyl-2-trifluoromethyl-benzyl)-1H-indazol-5-ylmethylene]-2-[4-(2-hydroxy-ethyl)-piperazin-1-yl]-thiazol-4-one]
8 | 8.00 | COc1ccc(Cn2ncc3cc(/C=C4\SC(N5C[C@@H](O)[C@H](O)C5)=NC4=O)ccc32)c(C(F)(F)F)c1 [Example 32, 2-(3R,4R-Dihydroxy-pyrrolidin-1-yl)-5-[1-(4-methoxy-2-trifluoromethyl-benzyl)-1H-indazol-5-ylmethylene]-thiazol-4-one]
9 | 8.36 | COc1ccc(Cn2ncc3cc(/C=C4\SC(N5CC(C(=O)O)C5)=NC4=O)ccc32)c(C(F)(F)F)c1 [Example 33, 1-{5-[1-(4-M ethoxy-2-trifluoromethyl-benzyl)-1H-indazol-5-ylmethylene]-4-oxo-4,5-dihydro-thiazol-2-yl}-azetidine-3-carboxylic acid]
10 | 8.12 | COc1ccc(Cn2ncc3cc(/C=C4\SC(N5CCNCC5)=NC4=O)ccc32)c(C(F)(F)F)c1 [Example 34, 5-[1-(4-Methoxy-2-trifluoromethyl-benzyl)-1H-indazol-5-ylmethylene]-2-piperazin-1-yl-thiazol-4-one]
11 | 8.27 | O=C1N=C(N2CC(C(=O)O)C2)S/C1=C\c1ccc2c(cnn2Cc2ccc(Br)cc2C(F)(F)F)c1 [Example 36, 1-{5-[1-(4-Bromo-2-trifluoromethyl-benzyl)-1H-indazol-5-ylmethylene]-4-oxo-4,5-dihydro-thiazol-2-yl}-azetidine-3-carboxylic acid]
12 | 8.28 | O=C1N=C(N2CCC[C@H](C(=O)O)C2)S/C1=C\c1ccc2c(cnn2Cc2ccc(C(F)(F)F)cc2C(F)(F)F)c1 [Example 37, 1-{5-[1-(2,4-Bis-trifluoromethyl-benzyl)-1H-indazol-5-ylmethylene]-4-oxo-4,5-dihydro-thiazol-2-yl}-piperidine-3-(S)-carboxylic acid]
13 | 8.05 | O=C1N=C(N2CCC[C@@H](C(=O)O)C2)S/C1=C\c1ccc2c(cnn2Cc2ccc(C(F)(F)F)cc2C(F)(F)F)c1 [Example 38, 1-{5-[1-(2,4-Bis-trifluoromethyl-benzyl)-1H-indazol-5-ylmethylene]-4-oxo-4,5-dihydro-thiazol-2-yl}-piperidine-3-(R)-carboxylic acid]
14 | 7.82 | COc1ccc(Cn2ncc3cc(/C=C4\SC(N5CCC(C(=O)O)CC5)=NC4=O)ccc32)c(C(F)(F)F)c1 [Example 41, 1-{5-[1-(4-M ethoxy-2-trifluoromethyl-benzyl)-1H-indazol-5-ylmethylene]-4-oxo-4,5-dihydro-thiazol-2-yl}-piperidine-4-carboxylic acid]
15 | 8.38 | CN1CCCN(C2=NC(=O)/C(=C/c3ccc4c(cnn4Cc4ccc(C(F)(F)F)cc4C(F)(F)F)c3)S2)CC1 [Example 42, 5-[1-(2,4-Bis-trifluoromethyl-benzyl)-1H-indazol-5-ylmethylene]-2-(4-methyl-[1,4]diazepan-1-yl)-thiazol-4-one]
16 | 7.96 | O=C1N=C(N2CCC[C@@H]2C(=O)O)S/C1=C\c1ccc2c(cnn2Cc2ccc(C(F)(F)F)cc2C(F)(F)F)c1 [Example 43, 1-{5-[1-(2,4-Bis-trifluoromethyl-benzyl)-1H-indazol-5-ylmethylene]-4-oxo-4,5-dihydro-thiazol-2-yl}-pyrrolidine-2-(R)-carboxylic acid]
17 | 8.49 | O=C1N=C(N2CCC[C@H]2C(=O)O)S/C1=C\c1ccc2c(cnn2Cc2ccc(Cl)cc2C(F)(F)F)c1 [Example 44, 1-{5-[1-(4-Chloro-2-trifluoromethyl-benzyl)-1H-indazol-5-ylmethylene]-4-oxo-4,5-dihydro-thiazol-2-yl}-pyrrolidine-2-(S)-carboxylic acid]
18 | 7.47 | COc1ccc(Cn2ncc3cc(/C=C4\SC(N5CCC[C@@H]5C(=O)O)=NC4=O)ccc32)c(C(F)(F)F)c1 [Example 45, 1-{5-[1-(4-M ethoxy-2-trifluoromethyl-benzyl)-1H-indazol-5-ylmethylene]-4-oxo-4,5-dihydro-thiazol-2-yl}-pyrrolidine-2-(R)-carboxylic acid]
19 | 7.57 | O=C1N=C(N2CCC[C@@H]2C(=O)O)S/C1=C\c1ccc2c(cnn2Cc2ccc(Cl)cc2C(F)(F)F)c1 [Example 46, 1-{5-[1-(4-Chloro-2-trifluoromethyl-benzyl)-1H-indazol-5-ylmethylene]-4-oxo-4,5-dihydro-thiazol-2-yl}-pyrrolidine-2-(R)-carboxylic acid]
20 | 8.09 | O=C1N=C(N2CCNC[C@@H]2C(=O)O)S/C1=C\c1ccc2c(cnn2Cc2ccc(C(F)(F)F)cc2C(F)(F)F)c1 [Example 47, 1-{5-[1-(2,4-Bis-trifluoromethyl-benzyl)-1H-indazol-5-ylmethylene]-4-oxo-4,5-dihydro-thiazol-2-yl}piperazine-2-(R)-carboxylic acid]
21 | 7.84 | O=C1N=C(N2CCC[C@H](C(=O)O)C2)S/C1=C\c1ccc2c(cnn2Cc2ccc(Cl)cc2C(F)(F)F)c1 [Example 48, 1-{5-[1-(4-Chloro-2-trifluoromethyl-benzyl)-1H-indazol-5-ylmethylene]-4-oxo-4,5-dihydro-thiazol-2-yl}piperidine-3-(S)-carboxylic acid]
22 | 8.22 | O=C1N=C(N2CC[C@H]2C(=O)O)S/C1=C\c1ccc2c(cnn2Cc2ccc(C(F)(F)F)cc2C(F)(F)F)c1 [Example 49, 1-{5-[1-(2,4-Bis-trifluoromethyl-benzyl)-1H-indazol-5-ylmethylene]-4-oxo-4,5-dihydro-thiazol-2-yl}-azetidine-2-(S)-carboxylic acid]
23 | 8.11 | COc1ccc(Cn2ncc3cc(/C=C4\SC(N5CC[C@H]5C(=O)O)=NC4=O)ccc32)c(C(F)(F)F)c1 [Example 50, 1-{5-[1-(4-Methoxy-2-trifluoromethyl-benzyl)-1H-indazol-5-ylmethylene]-4-oxo-4,5-dihydro-thiazol-2-yl}-azetidine-2-(S)-carboxylic acid]
24 | 8.05 | COc1ccc(Cn2ncc3cc(/C=C4\SC(N5CCC[C@H](N)C5)=NC4=O)ccc32)c(C(F)(F)F)c1 [Example 51, 2-(3-(S)-Amino-piperidin-1-yl)-5-[1-(4-methoxy-2-trifluoromethyl-benzyl)-1H-indazol-5-ylmethylene]-thiazol-4-one]
25 | 7.89 | N[C@@H]1CCCN(C2=NC(=O)/C(=C/c3ccc4c(cnn4Cc4ccc(C(F)(F)F)cc4C(F)(F)F)c3)S2)C1 [Example 53, 2-(3-(R)-Amino-piperidin-1-yl)-5-[1-(2,4-bis-trifluoromethyl-benzyl)-1H-indazol-5-ylmethylene]-thiazol-4-one]
26 | 7.21 | O=C1N=C(N2CCCNCC2)S/C1=C\c1ccc2c(cnn2Cc2ccc(C(F)(F)F)cc2C(F)(F)F)c1 [Example 55, 5-[1-(2,4-Bis-trifluoromethyl-benzyl)-1H-indazol-5-ylmethylene]-2-[1,4]diazepan-1-yl-thiazol-4-one]
